Experiments:
[1] = test system: ischämischen Langendorff-Herzen; assay: Ischaemic Langendorff heart, recovery of regular contractions after reperfusion (in vitro or ex vivo); settings: ischaemic Langendorff hearts
From the text: Hieraus läßt sich eine protektive Wirksamkeit der Substanzen auf Herzschädigungen während Hypoxie oder Ischämie ableiten.

Mäusen (ChbI:NMRI) = assay: Scopolamine test: passive avoidance reaction in mice; format: in vivo
From the text: Durch den cholinerg-muskarinen Antagonisten Scopolamin wird bei Mensch und Tier eine vorübergehende Störung des Überganges von Inhalten des Kurzzeitgedächtnisses in das Langzeitgedächtnis hervorgerufen. Die auch klinisch bei gesunden Probanden durch Scopolamin auslösbaren, mnestischen Störungen sind in ihrer Ausprägung den psychopathologischen Veränderungen bei Patienten mit organischem Hirnsyndrom ähnlich (Drachman & Leavitt, 1974).
Der Scopolamin-Test wird an Gruppen von jeweils 10 männlichen, nicht nüchternen, naiven Mäusen (ChbI:NMRI; Körpergewicht 35 g) mit Hilfe einer passiven Vermeidereaktion durchgeführt. Das Testgerät besteht aus einer Skinner Box (30 cm × 26 cm × 29 cm) mit einem elektrifizierbaren Gitterboden und einer Plastikplattform (5 cm × 5 cm) an einer Seitenwand. Die Tiere werden einzeln in die Skinner Box gesetzt. Nach einer Orientierungsperiode von 30 sec werden kurze, unterbrochene Stromstöße von ca. 0,8 mA so oft an den Gitterboden der Box gelegt, bis das Tier gelernt hat, daß das Aufsuchen und Verweilen auf der Plastikplattform vor dem Stromstoß Sicherheit gewährt. Tiere, welche dies innerhalb von 120 sec nicht lernen, werden nicht weiter verwendet. Die anderen Mäuse werden unmittelbar nach Erlernen der passiven Vermeidereaktion in drei Gruppen (10 Tiere pro Gruppe) eingeteilt. Eine Gruppe erhält Scopolaminhydrobromid (0,6 mg/kg s.c.) und oral Vehikel (0,5 % Tylose); die zweite Gruppe Scopolaminhydrobromid sowie die zu testende Substanz per os in 0,5 % Tylose und die dritte Gruppe lediglich 0,5 % Tylose p.o.. Eine Stunde nach Application wird jedes Tier einzeln auf die Plattform gesetzt, um das Erinnerungsvermögen an die erlernte Vermeidereaktion zu prüfen. Das Kriterium besteht in der Bestimmung, ob die Maus während mindestens 60 sec. auf der Plattform verbleibt (Ja-Antwort) oder nicht (Nein-Antwort).
Etwa 75% der Tiere, welche ausschließlich mit 0,5 % Tylose behandelt wurden, verbleiben bei der abschließenden Prüfung länger als 60 sec. auf der Plattform: ein Ergebnis, welches als Ausdruck des guten Erinnerungsvermögens an die erlernte Erfahrung gedeutet werden kann. Nach Gabe von Scopolamin und Tylose verbleiben durchschnittlich etwa 25 % der Tiere auf der Plattform; dies zeigt die erhebliche Beeinträchtigung des Erinnerungsvermögens nach Gabe von Scopolamin. Verbindungen der Formel I antagonisieren die Scopolaminwirkung statistisch signifikant. Zum Beispiel ist die oben genannte Verbindung A (N-[N-(1-L-Ethoxycarbonyl-3-phenylpropyl)-L-alanyl]-4,5,6,7-tetrahydro-thieno[2,3-c]-pyridin-7-L-carbonsäure) bei einer Dosis über 0,1 mg/kg p.o. (insbesondere ab 0,5 mg/kg p.o.) wirksam. In Gegensatz dazu sind Captopril bei Dosen von 10 und 30 mg/kg p.o. und Enalapril bei einer Dosis von 5 mg/kg p.o. unwirksam.

[2] = test system: Ca²⁺-Influx durch K⁺ Depolarisation; assay: Ca2+ influx by K+ depolarisation; format: cell-based, Kaninchen; settings: Oryctolagus cuniculus; compound 10⁻⁵ mol/l; read-out: Hemmung des Ca²⁺-Influx durch K⁺ Depolarisation
From the text: (§1) 2. In einer weiteren Testanordnung wurde die Wirkung und der Mechanismus der Verbindungen auf die Ca²⁺-Fluxe wie folgt nachgewiesen: Die Bestimmung des Ca²⁺-Efflux wurde nach der Methode von C. van Breemen, P. Aarsonson, R. Loutzenheiser und K. Meisheri (Chest 78, 157S-165S (1980) und von R. Casteels und G.Droogman (J.Physiol. 317, 263-276 (1981)) durchgeführt. Mit dem Ca²⁺-Efflux wird die intrazelluläre Ca²⁺-Freisetzung auf eine Rezeptorstimulation gemessen. Damit ist eine quantitative Beurteilung des Ausmaßes der Rezeptor-vermittelten Wirkung möglich.
(§2) Untersuchungen zum Ca²⁺-Efflux an der Kaninchen-Aorta ergaben, daß die Verbindungen der Formel I den durch Kaliumionen und Noradrenalin stimulierten Ca²⁺-Efflux hemmen.
(§3) Versuche mit der oben genannten Verbindung A (N-[N-(1-L-Ethoxycarbonyl-3-phenylpropyl)-L-alanyl]4,5,6,7-tetrahydro-thieno[2,3-c]pyridin-7-L-carbonsäure ergaben: Die Hemmung des durch 10⁻⁵ mol/l Noradrenalin stimulierten Ca²⁺ Efflux liegt bei 25, 24 und 30 % mit der oben angeführten Verbindung A in den entsprechenden Konzentrationen 10⁻⁶, 10⁻⁵ und 10⁻⁴ mol/l. Das weist auf eine grundsätzlich nur partielle Hemmung hin. Der Ca²⁺-Influx durch K⁺ Depolarisation wird zu 38% gehemmt (10⁻⁵ mol/l der Verbindung A).

[3] = test system: myocardiale Radiocalciumaufnahme; assay: Inhibition of isoprenaline-induced myocardial radiocalcium uptake in conscious rats after oral dosing (method of Arndts); format: in vivo, Ratten; settings: Rattus norvegicus, oral dose that inhibits by 50 % the myocardial radiocalcium uptake caused by 30 mg/kg s.c. Isoprenalin, read-out: H50
From the text: 1. Bekanntlich ist der myocardiale Ca²⁺ Gehalt ein Maß für die hypoxische bzw. die durch toxische Catecholamindosen hervorgerufene Herzschädigung (Higgins et al. Mol. Cell. Cardiol. 10. 427-438, 1984; Nakanishi et. al., Am. J. Physiol. 242, 437-449, 1982; Fleckenstein A., Vorträge der Erlanger Physiol. Tagung 1970, Edit. Keidel, Springer Verl. Berlin; Heidelberg, New York, 1971). Umgekehrt ist die Inhibition der hypoxischen oder Isoprenalin-bedingten myocardialen Calciumaufnahme ein Maß für die cardioprotektive Effektivität von Calciumantagonisten (Fleckenstein s.o), von Calmodulinhibitoren (Higgins s.o.) und anderen Pharmaka, z.B. Betaadrenolytika (Arndts, Arzneimittelforschung, 25, 1279-1284 (1975)). Die cardioprotektive Wirkung wurde an wachen Ratten nach oraler Wirkstoffgabe anhand der von Arndts (s.o.) beschriebenen Methoden festgestellt und die Wirkungsstärke der Testsubstanzen als H₅₀-Werte angegeben; dieser Wert entspricht der Dosis, die die durch eine Gabe von 30 mg/kg s.c. Isoprenalin bedingte myocardiale Radiocalciumaufnahme bis 50 % hemmt. Hier erwiesen sich die vorliegenden Verbindungen als wirksamer als die bekannten Handelsprodukte Captopril und Enalapril. Die Ergebnisse sind in Tabelle I dargestellt.

[4] = test system: Ca²⁺-Efflux an der Kaninchen-Aorta; assay: Stimulated Ca2+ efflux in rabbit aorta (method of van Breemen et al. / Casteels and Droogman); format: cell-based; settings: Oryctolagus cuniculus, read-out: Hemmung des durch 10⁻⁵ mol/l Noradrenalin stimulierten Ca²⁺ Efflux
From the text: as §1, §2, §3

Row | SMILES | Wiederauftreten regelmäßiger Kontraktionen nach Reperfusion [1] | ED50 [3] [mg/kg] | other results
1 | CCOC(=O)[C@H](CCc1ccccc1)N[C@@H](C)C(=O)N1CCc2ccsc2[C@H]1C(=O)O [A, N-[N-(1-L-Ethoxycarbonyl-3-phenylpropyl)-L-alanyl]-4,5,6,7-tetrahydro-thieno[2,3-c]pyridin-7-L-carbonsäure] | zeitliche Verkürzung des Wiederauftretens regelmäßiger Kontraktionen | 0.63 | Antagonismus der Scopolaminwirkung (Mäusen (ChbI:NMRI); dose above 0,1 mg/kg p.o. (especially from 0,5 mg/kg p.o.)): wirksam; inhibition at 10 µM [2]: 38%; inhibition at 100 µM ([4]; compound 10⁻⁴ mol/l): 30%; inhibition at 10 µM ([4]; compound 10⁻⁵ mol/l): 24%; inhibition at 1 µM ([4]; compound 10⁻⁶ mol/l): 25%
2 | CC(CS)C(=O)N1CCC[C@@H]1C(=O)O (stereo partly drawn) [Captopril, D-2-Methyl-3-mercaptopropanoyl-L-prolin] | deutlich schwächer | 1.52 | Antagonismus der Scopolaminwirkung (Mäusen (ChbI:NMRI); 10 mg/kg p.o.): unwirksam; Antagonismus der Scopolaminwirkung (Mäusen (ChbI:NMRI); 30 mg/kg p.o.): unwirksam
3 | C[C@H](N[C@@H](CCc1ccccc1)C(=O)O)C(=O)N1Cc2nc[nH]c2C[C@H]1C(=O)O [D, N-[N-(1-L-Carboxy-3-phenylpropyl)-L-alanyl]-4,5,6,7-tetrahydro-1H-imidazo[4,5-c]pyridin-6-L-carbonsäure] |  | 1.32 | 
4 | C[C@H](N[C@@H](CCc1ccccc1)C(=O)O)C(=O)N1Cc2ccsc2C[C@H]1C(=O)O [E, N-[N-(1-L-Carboxy-3-phenylpropyl)-L-alanyl]-4,5,6,7-tetrahydro-thieno[3,2-c]pyridin-6-L-carbonsäure] |  | 1.1 | 
5 | CCOC(=O)[C@H](CCc1ccccc1)N[C@@H](C)C(=O)N1CCC[C@H]1C(=O)O [Enalapril, 1-N-[(S)-1-Ethoxycarbonyl-3-phenylpropyl]-S-alanyl-S-prolin] | deutlich schwächer | 1.59 | Antagonismus der Scopolaminwirkung (Mäusen (ChbI:NMRI); 5 mg/kg p.o.): unwirksam
